US20160235686A1, “PROCESSES FOR PREPARING A SOLID POLYMER MATRIX CONTAINING A CORE MATERIAL BY PRESSURE CYCLING OF SUPERCRITICAL FLUID” (priority 2013, published 2016)
Non-standard residues stand in square brackets, D forms with d. Residues, ends and D or L forms follow the SMILES beside them. *: point of attachment. dPhe(4-NHCONH2) = NC(=O)Nc1ccc(C[C@@H](N)C(=O)O)cc1; Dihydroorotyl(S) = O=C1C[C@@H](C(=O)*)NC(=O)N1; dPhe(4-Cl) = N[C@H](Cc1ccc(Cl)cc1)C(=O)O; Phe(4-NH2) = Nc1ccc(C[C@H](N)C(=O)O)cc1; d2Nal = N[C@H](Cc1ccc2ccccc2c1)C(=O)O; Lys(iPr) = CC(C)NCCCC[C@H](N)C(=O)O; d3Pal = N[C@H](Cc1cccnc1)C(=O)O

Test: In vitro release testing of degarelix from microparticles
Type: physicochemical
Conditions: effect of 10 pressure cycles vs no pressure cycling, manitol/acetate buffer pH 4, 37° C.
Protocol: In-vitro release of microparticles is conducted with a manitol/acetate buffer solution at pH 4. […] Each sample is analysed in triplicate.
A 25 mg sample is weighed out into a 25 mL volumetric flask. 1 mL of acetone is added to the volumetric flask to dissolve the microparticles. Once dissolved, the volumetric flask is topped up with water (approximately 24 mL), precipitating the polymer. A 1 mL sample of the supernatant is taken and centrifuged at 13000 rpm for 3 min. From this, a 200 μL sample is taken and analysed by HPLC. The loading determination method is carried out in triplicate and an average is taken.

## CC(=O)N[C@H](Cc1ccc2ccccc2c1)C(=O)N[C@H](Cc1ccc(Cl)cc1)C(=O)N[C@H](Cc1cccnc1)C(=O)N[C@@H](CO)C(=O)N[C@@H](Cc1ccc(NC(=O)[C@@H]2CC(=O)NC(=O)N2)cc1)C(=O)N[C@H](Cc1ccc(NC(N)=O)cc1)C(=O)N[C@@H](CC(C)C)C(=O)N[C@@H](CCCCNC(C)C)C(=O)N1CCC[C@H]1C(=O)N[C@H](C)C(N)=O [degarelix] (Ac-[d2Nal][dPhe(4-Cl)][d3Pal]S[Phe(4-NH2)](Dihydroorotyl(S))[dPhe(4-NHCONH2)]L[Lys(iPr)]P[dA]-NH2)
FIG. 1, PLGA formulation prepared with processing aid (DMSO)
  decrease in the initial burst release of degarelix from the formulation: approximately 15%
FIG. 2, PLGA formulation prepared without a processing aid
  decrease in the initial burst release of degarelix from the formulation: approximately 3%
